In publication PMC8831520, “Small molecule SWELL1 complex induction improves glycemic control and nonalcoholic fatty liver disease in murine Type 2 diabetes” (Nature Communications, 2022):

Legend:
[1] = test system: human umbilical vein endothelial cells (HUVECs); test: SWELL1, pAKT2 and p-eNOS western blots in HUVECs; assay type: cell-based; conditions: 96 h
Procedure: HUVECs were purchased from ATCC (CRL-2922^TM) and were grown in M199 growth media supplemented with 20% FBS, 0.05 g Heparin Sodium Salt (Alfa Aesar), and 15 mg ECGS (Millipore Sigma). Cells were cultured on 1% of gelatin-coated plates at 37 °C and 5% CO2. For SN-40X stimulated eNOS and AKT signaling assays, HUVECs were treated for 96 h with the respective compounds and serum-starved overnight (+DMSO or +SN-40X) for 16 h in M199 media plus 1% FBS (Atlanta Biological). After the serum starve, HUVECs were returned to normal growth media for 30 min (+DMSO or +SN-40X) prior to lysate collection. Small interfering RNA (siRNA) mediated knockdown was adapted from Koh et. al., 2008[81]. Briefly, HUVECs were transfected with either a silencer select siRNA with si-SWELL1 (Cat#4392420, sense: […] antisense: […], Invitrogen) or a non-targeting control silencer select siRNA (Cat# 4390846, Invitrogen) upon reaching 90–95% confluency. siRNA was transfected twice, 24 and 72 h after initial seeding of HUVECs. Each siRNA was combined with Opti-MEM (285.25 µl, Cat#11058-021, Invitrogen) siPORT™ amine (8.75 µl, Cat#AM4503, Invitrogen), and the silencer select siRNA (6 µl) in a final volume of 300 µl. HUVECs were transfected for 4 h at 37 °C in 1% FBS containing DMEM media. For short hairpin RNA (shRNA) mediated knockdown approach, HUVECs were transduced with either human adenovirus type 5 targeting SWELL1 (Ad5-shSWELL1) or scrambled non-targeting control (Ad5-shSCR) at a multiplicity of infection (MOI) of 50 for 24 h at 37 °C upon reaching 70% confluency. The cells were then washed with DMEM media and transduced a second time, with a fresh virus, with an MOI of 25 for 12 h at 37 °C. After the final transduction step, the cells were serum-starved as described above for HUVECs, and lysates were collected. The SN-40X compounds were present in the culture media throughout the transfection/transduction for both the si/sh RNA mediated knockdown approaches. HEK-293 (ATCC, #CRL-1573™) cells were maintained in 90% DMEM (25 mM D-Glucose and 4 mM L-Glutamine) containing 10% fetal bovine serum (FBS) and 100 IU penicillin and 100 µg/ml streptomycin.
Adipocytes were washed twice in ice-cold phosphate buffer saline and lysed in RIPA buffer (150 mM NaCl, 20 mM HEPES, 1% NP-40, 5 mM EDTA, pH 7.4) with proteinase/phosphatase inhibitors (Roche). The cell lysate was further sonicated in 10 s cycle intervals 2–3 times and centrifuged at 18,407×g for 30 min at 4 °C and repeated one more time to remove the excess fat. The supernatant was collected and further estimated for protein concentration using a DC protein assay kit (Bio-Rad). Fat and liver tissues were homogenized and suspended in RIPA buffer with inhibitors and further processed in a similar fashion as described above. HUVECs were also prepared in a similar fashion except the lysates were spun only once to remove the cells debris to obtain the clear supernatant. For islets, either human or mouse islets were washed twice with phosphate buffer saline (PBS) and lysed using RIPA buffer containing protease and phosphatase inhibitors. The lysate was further clarified by freezing in liquid nitrogen for about 10 s for three cycles. The supernatant was collected from the whole lysate centrifuged at 16,260×g for 20 min at 4 °C. […] For soleus muscle, the tissue was homogenized in a Bullet Blender homogenizer (Speed-9, Time-3 mins) in 8 volumes of ice-cold muscle homogenization buffer (50 mM Tris, 25 mM NaCl, 0.2% Nonidet P-40, 5 mM EGTA, 2.5 mM EDTA, 20 mM NaF, 20 mM Na4P2O7·10H2O, 2 mM Na3VO4, pH 7.4) supplemented with protease/phosphatase inhibitor (Roche). The homogenized lysate was centrifuged two times at 18,500×g for 20 min at 4 °C and supernatant was collected for protein estimation. Protein samples were further prepared by boiling in 2X or 4X Laemmli buffer. […]

[2] = test system: endogenous SWELL1 in 3T3-F442A preadipocytes; test: SWELL1 plasma membrane localization, immunofluorescence; assay type: cell-based, murine; conditions: 1 or 10 µM, 48 h, vs vehicle or Inactive 1
Procedure: 3T3-F442A preadipocytes (WT, KO) and differentiated adipocytes without or with SWELL1 overexpression (WT + SWELL1 O/E, KO + SWELL1 O/E) were prepared as described in the Cell culture section on collagen-coated coverslips. […] The cells were fixed in ice-cold acetone for 15 min at −20 °C and then washed four times with 1XPBS. […] Either anti-SWELL1 (1:400) or anti-Flag (1:1500, Sigma #F3165) antibody was added to the cells and incubated overnight at 4 °C. The cells were then washed three times (1XPBS) prior to and after the addition of 1:1000 Alexa Fluor 488/568 secondary antibody (anti-rabbit, #A11034 or anti-mouse, #A11004) for 1 h at RT. Cells were counterstained with nuclear TO-PRO-3 (Life Technologies, #T3605) or DAPI (Invitrogen, #D1306) staining (1 µM) for 20 min followed by three washes with 1XPBS. Coverslips were further mounted on slides with ProLong Diamond anti-fading media. All images were captured using Zeiss LSM700/LSM510 confocal microscope with 63X objective (NA 1.4). SWELL1 membrane localization was quantified by stacking all the z-images and converting it into a binary image where the cytoplasmic intensity per unit area was subtracted from the total cell intensity per unit area using ImageJ software.

[3] = test system: T2D and non-T2D mice; test: Metabolic phenotyping: fasting glucose, GTT, ITT
Procedure: All compounds were dissolved in Kolliphor® EL (Sigma, #C5135).
Mice were fasted for 6 h prior to glucose tolerance tests (GTT). Baseline glucose levels at 0 min timepoint (fasting glucose, FG) were measured from a blood sample collected from tail snipping using glucometer (Bayer Healthcare LLC). Either 1 or 0.75 g D-Glucose/kg body weight were injected (i.p.) for lean or HFD mice, respectively and glucose levels were measured at 5 or 7, 15, 30, 60, 90, and 120 min timepoints after injection. For insulin tolerance tests (ITTs), the mice were fasted for 4 h. Similar to GTTs, the baseline blood glucose levels were measured at 0 min timepoint and 15, 30, 60, 90, and 120 min timepoints post-injection (i.p.) of insulin (HumulinR, 1 U/kg bodyweight for lean mice or 1.25 U/kg body weight for HFD mice). […] The collected plasma was then measured for insulin content by using Ultra-Sensitive Mouse Insulin ELISA Kit (Crystal Chem, #90080). All mouse studies were performed in a blinded fashion.

[4] = 12–18 weeks HFD mice, 5 mg/kg/day × 4 days, pre- vs post-treatment

Compound	effect on SWELL1, pAKT2 and p-eNOS ([1]; 500 nM)	eNOS phosphorylation (Ser1177) ([1]; 500 nM)	dose dependence of p-eNOS induction ([1]; different concentrations)	plasma membrane (PM) localization of endogenous SWELL1 [2]	fasting blood glucose (FG), glucose tolerance (GTT), and insulin tolerance (ITT) ([3]; HFD-fed and KKAy T2D mice, 5 mg/kg i.p. 4–10 days)	hypoglycemia in control strain ([3]; KKAa parental strain, 5 mg/kg × 4–10 days)	FG, GTT, and ITT compared to vehicle ([3]; lean, non-T2D, glucose-tolerant mice)	FG, GTT, and ITT compared to vehicle ([3]; same mice after 16 weeks of HFD-feeding, 4 days treatment)	SWELL1 induction compared to vehicle ([1]; 100 nM) [fold]	basal pAKT2 induction compared to vehicle ([1]; 100 nM) [fold]	p-eNOS induction compared to vehicle ([1]; 100 nM) [fold]	fasting blood glucose [3, 4]	glucose tolerance [3, 4]	insulin sensitivity based on HOMA-IR ([3]; HFD-T2D mice, compared to Inactive 1)	glucose tolerance ([3]; HFD-T2D mice, separate experiment, compared to Inactive 1)
CCCCC1(C2CCCC2)Cc2cc(OCC(=O)O)c(Cl)c(Cl)c2C1=O (stereo not shown) [Inactive 1, 2-((2-butyl-6,7-dichloro-2-cyclopentyl-1-oxo-2,3-dihydro-1H-inden-5-yl)oxy)acetic acid]	no effect														
CCCCC1(C2CCCC2)Cc2cc(OCCCC(=O)O)c(Cl)c(Cl)c2C1=O (stereo not shown) [SN-401, 4-((2-butyl-6,7-dichloro-2-cyclopentyl-1-oxo-2,3-dihydro-1H-inden-5-yl)oxy)butanoic acid]		increases	dose-dependent induction of p-eNOS in HUVECs that saturates beyond 100 nM	enhanced	improved	does not cause hypoglycemia	similar	marked improvements							
CCCCC1(C2CCCC2)Cc2cc(OCCCCCC(=O)O)c(Cl)c(Cl)c2C1=O (stereo not shown) [SN-406, 6-((2-butyl-6,7-dichloro-2-cyclopentyl-1-oxo-2,3-dihydro-1H-inden-5-yl)oxy)hexanoic acid]				enhanced					1.5	2.8	5.5	markedly reduced	improved	trend toward improved insulin sensitivity	significantly improved
